Assay results reported in patent US20210392890A1, “COMPOSITIONS COMPRISING PYRIDINE CARBOXYLATE HERBICIDES AND PLANT GROWTH REGULATORS” (Corteva Agriscience LLC, priority 2018, published 2021).
Several values for one entry are separate records, joined by “and”; a condition that tells them apart may be missing. Equal entries are not always repeated.

Tests used:
Format in all cases: in vivo
[1] = test system: Viola tricolor (wild pansy); assay: Greenhouse postemergence herbicidal effect on VIOTR
Text: (§1) Seeds of the desired test plant species were planted in a 90:10% v/v (volume/volume) mixture of PRO-MIX® BX (Premier Tech Horticulture, Quakertown, Pa., USA) and PROFILE® GREENS GRADE™ (Profile Products LLC, Buffalo Grove, Ill., USA) planting mixture, which typically has a pH of 5.2 to 6.2 and an organic matter content of at least 50 percent, in plastic pots with a surface area of 103.2 square centimeters (cm^2). In some aspects, to help ensure good germination and healthy plants, a fungicide treatment and/or other chemical or physical treatment was applied. The plants were grown for 7-36 days (d) in a greenhouse with an approximate 14-hour (h) photoperiod which was maintained at about 23° C. during the day and 22° C. during the night. Nutrients and water were added on a regular basis and supplemental lighting was provided with overhead metal halide 1000-Watt lamps as necessary. The plants were employed for testing when they reached the second or third true leaf stage.
(§2) Emulsifiable concentrates of each of each pyridine carboxylate herbicide (Compound A or Compound B) were prepared at 100 grams acid equivalent per liter (g ae/L). The emulsifiable concentrates also included a safener, cloquintocet-mexyl, at 120 grams active ingredient per liter (g ai/L). An aliquot of each emulsifiable concentrate was placed in a 25 mL glass vial and diluted with an aqueous mixture of 1.25% (v/v) ACTIROB® B esterified rapeseed oil (Bayer Crop Science, Research Triangle Park, N.C., USA) or MSO® Concentrate with LECI-TECH® methylated soybean oil (Loveland Products, Loveland, Colo., USA) to obtain concentrated stock solutions at the highest application rate for each herbicide, based upon a 12 milliliter (mL) application volume at a rate of 187 liters per hectare (L/ha). The concentrated stock solutions were further diluted with an aqueous mixture of 1.25% v/v ACTIROB® B or MSO® Concentrate with LECI-TECH® to obtain stock solutions at reduced application rates for each herbicide. Spray solutions of the herbicide combinations (Compound A or Compound B plus the PGR) were prepared by adding weighed amounts or aliquots of the PGR to the stock solutions of Compound A or Compound B to form 12-mL spray solutions in two-way combinations.
(§3) The spray solutions were applied to the plant material with an overhead Mandel track sprayer equipped with 8002E nozzles calibrated to deliver 187 L/ha over an application area of 0.503 square meters (m^2) at a spray height of 18 inches (43 centimeters (cm)) above the average plant canopy. Control plants were sprayed in the same manner with the solvent blank. All pyridine carboxylate herbicide (component a) application rates are given as “g ae/ha” and all PGR (component b) application rates are given as “g ai/ha.”
(§4) The treated plants and control plants were placed in a greenhouse as described above and watered by sub-irrigation to prevent wash-off of the test compounds. After 20-22 d, the condition of the test plants as compared with that of the control plants was determined visually and scored on a scale of 0 to 100 percent where 0 corresponds to no injury and 100 corresponds to complete kill.

[2] = test system: Polygonum convolvulus (wild buckwheat); assay: Greenhouse postemergence herbicidal effect on POLCO
Text: as §1, §2, §3, §4

[3] = test system: Cirsium arvense (Canada thistle); assay: Greenhouse postemergence herbicidal effect on CIRAR
Text: as §1, §2, §3, §4

Glycine max (soybean) = assay: Greenhouse postemergence herbicidal effect on GLXMA
Text: as §1, §2, §3, §4

[4] = test system: Ipomoea hederacea (ivyleaf morningglory); assay: Greenhouse postemergence herbicidal effect on IPOHE
Text: as §1
(§5) Emulsifiable concentrates of each of each pyridine carboxylate herbicide (Compound A or Compound B) were prepared at 100 grams acid equivalent per liter (g ae/L). The emulsifiable concentrates also included a safener, cloquintocet-mexyl, at 120 grams active ingredient per liter (g ai/L). […]
as §4

[5] = test system: Amaranthus retroflexus (pigweed); assay: Greenhouse postemergence herbicidal effect on AMARE
Text: as §1, §2, §3, §4

[6] = test system: Helianthus annuus (common sunflower); assay: Greenhouse postemergence herbicidal effect on HELAN
Text: as §1, §2, §3, §4

Kochia scoparia (kochia) = assay: Greenhouse postemergence herbicidal effect on KCHSC
Text: as §1, §2, §3, §4

[7] = test system: Stellaria media (chickweed); assay: Greenhouse postemergence herbicidal effect on STEME
Text: as §1, §2, §3, §4

[8] = test system: Brassica napus (spring rape); assay: Greenhouse postemergence herbicidal effect on BRSNN
Text: as §1, §2, §3, §4

[9] = test system: Setaria faberi (giant foxtail); assay: Greenhouse postemergence herbicidal effect on SETFA
Text: as §1, §2, §3, §4

[10] = test system: Chenopodium album L. (common lambsquarters); assay: Greenhouse postemergence herbicidal effect on CHEAL
Text: as §1, §2, §3, §4

[11] = test system: Abutilon theophrasti (velvetleaf); assay: Greenhouse postemergence herbicidal effect on ABUTH
Text: as §1, §2, §3, §4

[12] = test system: Euphorbia heterophylla (poinsettia); assay: Greenhouse postemergence herbicidal effect on EPHHL
Text: as §1, §2, §3, §4

[13] = test system: Sorghum vulgare (grain sorghum); details: Compound A 0 g/ha, Ethephon 140 g/ha
Text: as §1, §2, §3, §4

Zea mays (maize) = details: Compound A 0 g/ha, Ethephon 140 g/ha
Text: as §1, §2, §3, §4

[14] = test system: Cyperus esculentus (yellow nutsedge); assay: Greenhouse postemergence herbicidal effect on CYPES; details: Compound A 0 g/ha, Ethephon 140 g/ha
Text: as §1, §5
as §4, with “kill. […]” for “kill.”

[15] = test system: Digitaria sanguinalis (large crabgrass); assay: Greenhouse postemergence herbicidal effect on DIGSA; details: Compound A 0 g/ha, Ethephon 140 g/ha
Text: as §1, §5
as §4, with “kill. […]” for “kill.”

[16] = test system: Echinochloa crus-galli (barnyard grass); assay: Greenhouse postemergence herbicidal effect on ECHCG; details: Compound A 0 g/ha, Ethephon 140 g/ha
Text: as §1, §5
as §4, with “kill. […]” for “kill.”

[17] = test system: Rumex obtusifolia (broadleaf dock); assay: Greenhouse postemergence herbicidal effect on RUMOB; details: Compound A 0 g/ha, Ethephon 140 g/ha
Text: as §1, §5
as §4, with “kill. […]” for “kill.”

rice (ORYSA) = details: Compound A 0 g/ha, Ethephon 140 g/ha
Text: as §1, §5
as §4, with “kill. […]” for “kill.”

[18] = Compound A 0 g/ha, Ethephon 140 g/ha

## C[N+](C)(C)CCCl.[Cl-] [Chlormequat, Chlormequat chloride, reference compound]
[1]; PGR 560 g ai/ha alone
  % visual injury Obs: 0% and 3%
[2]; PGR 560 g ai/ha alone
  % visual injury Obs: 0% and 5%
[3]; PGR 560 g ai/ha alone
  % visual injury Obs: 0%
Glycine max (soybean); PGR 560 g ai/ha alone
  % visual injury Obs: 10%
[4]; PGR 560 g ai/ha alone
  % visual injury Obs: 0%
[5]; PGR 560 g ai/ha alone
  % visual injury Obs: 0%
[6]; PGR 560 g ai/ha alone
  % visual injury Obs: 0%
Kochia scoparia (kochia); PGR 560 g ai/ha alone
  % visual injury Obs: 0%
[7]; PGR 560 g ai/ha alone
  % visual injury Obs: 0%
[8]; PGR 560 g ai/ha alone
  % visual injury Obs: 0%
[9]; PGR 560 g ai/ha alone
  % visual injury Obs: 0%
[10]; PGR 560 g ai/ha alone
  % visual injury Obs: 0%

## C#CCOC(=O)c1nc(-c2ccc3cc[nH]c3c2F)c(F)c(N)c1Cl [Compound B, propargyl 4-amino-3-chloro-5-fluoro-6-(7-fluoro-1H-indol-6-yl)pyridine-2-carboxylate]
[1]; herbicide 7.5 g ae/ha alone
  % visual injury Obs: 10%
[1]; herbicide 10 g ae/ha alone
  % visual injury Obs: 40%
[11]; herbicide 7.5 g ae/ha alone
  % visual injury Obs: 68%
[11]; herbicide 10 g ae/ha alone
  % visual injury Obs: 68%
[2]; herbicide 7.5 g ae/ha alone
  % visual injury Obs: 73%
[2]; herbicide 10 g ae/ha alone
  % visual injury Obs: 80%
[12]; herbicide 7.5 g ae/ha alone
  % visual injury Obs: 83%
[12]; herbicide 10 g ae/ha alone
  % visual injury Obs: 99%
[3]; herbicide 7.5 g ae/ha alone
  % visual injury Obs: 45%
[3]; herbicide 10 g ae/ha alone
  % visual injury Obs: 45%
[6]; herbicide 7.5 g ae/ha alone
  % visual injury Obs: 85%
[6]; herbicide 10 g ae/ha alone
  % visual injury Obs: 100%
Kochia scoparia (kochia); herbicide 7.5 g ae/ha alone
  % visual injury Obs: 68%
Kochia scoparia (kochia); herbicide 10 g ae/ha alone
  % visual injury Obs: 80%
[7]; herbicide 7.5 g ae/ha alone
  % visual injury Obs: 10%
[7]; herbicide 10 g ae/ha alone
  % visual injury Obs: 93%
[8]; herbicide 7.5 g ae/ha alone
  % visual injury Obs: 68%
[8]; herbicide 10 g ae/ha alone
  % visual injury Obs: 85%
[9]; herbicide 7.5 g ae/ha alone
  % visual injury Obs: 70%
[9]; herbicide 10 g ae/ha alone
  % visual injury Obs: 55%
[10]; herbicide 7.5 g ae/ha alone
  % visual injury Obs: 85%
[10]; herbicide 10 g ae/ha alone
  % visual injury Obs: 90%

## O=P(O)(O)CCCl [Ethephon, reference compound]
[1]; [18]
  Herbicidal Effects (% visual injury) VIOTR Obs: 0%
[11]; [18]
  Herbicidal Effects (% visual injury) ABUTH Obs: 0%
[2]; [18]
  Herbicidal Effects (% visual injury) POLCO Obs: 0%
[12]; [18]
  Herbicidal Effects (% visual injury) EPHHL Obs: 0%
[3]; [18]
  Herbicidal Effects (% visual injury) CIRAR Obs: 0%
[5]; [18]
  Herbicidal Effects (% visual injury) AMARE Obs: 0%
[6]; [18]
  Herbicidal Effects (% visual injury) HELAN Obs: 0%
Kochia scoparia (kochia); [18]
  Herbicidal Effects (% visual injury) KCHSC Obs: 0%
[13]
  Herbicidal Effects (% visual injury) SORVU Obs: 0%
Zea mays (maize)
  Herbicidal Effects (% visual injury) ZEAMX Obs: 0%
[7]; [18]
  Herbicidal Effects (% visual injury) STEME Obs: 0%
[8]; [18]
  Herbicidal Effects (% visual injury) BRSNN Obs: 0%
[9]; [18]
  Herbicidal Effects (% visual injury) SETFA Obs: 0%
[10]; [18]
  Herbicidal Effects (% visual injury) CHEAL Obs: 0%
[14]
  Herbicidal Effects (% visual injury) CYPES Obs: 0%
[15]
  Herbicidal Effects (% visual injury) DIGSA Obs: 0%
[16]
  Herbicidal Effects (% visual injury) ECHCG Obs: 0%
[17]
  Herbicidal Effects (% visual injury) RUMOB Obs: 0%
Rice (ORYSA)
  Herbicidal Effects (% visual injury) ORYSA Obs: 0%

## O=C(O)Cc1c[nH]c2ccccc12 [IAA, indol-3-ylacetic acid, reference compound]
[1]; PGR 140 g ai/ha alone
  % visual injury Obs: 0%
[11]; PGR 140 g ai/ha alone
  % visual injury Obs: 0%
[2]; PGR 140 g ai/ha alone
  % visual injury Obs: 0%
[3]; PGR 140 g ai/ha alone
  % visual injury Obs: 0%
Glycine max (soybean); PGR 140 g ai/ha alone
  % visual injury Obs: 0%
[4]; PGR 140 g ai/ha alone
  % visual injury Obs: 0%
[5]; PGR 140 g ai/ha alone
  % visual injury Obs: 0%
[6]; PGR 140 g ai/ha alone
  % visual injury Obs: 0%
Kochia scoparia (kochia); PGR 140 g ai/ha alone
  % visual injury Obs: 0%
[7]; PGR 140 g ai/ha alone
  % visual injury Obs: 5%
[8]; PGR 140 g ai/ha alone
  % visual injury Obs: 0%
[9]; PGR 140 g ai/ha alone
  % visual injury Obs: 0%

## O=C(O)CCCc1c[nH]c2ccccc12 [IBA, indol-3-butyric acid, reference compound]
[1]; PGR 140 g ai/ha alone
  % visual injury Obs: 3%
[11]; PGR 140 g ai/ha alone
  % visual injury Obs: 0%
[2]; PGR 140 g ai/ha alone
  % visual injury Obs: 0%
[3]; PGR 140 g ai/ha alone
  % visual injury Obs: 0%
Glycine max (soybean); PGR 140 g ai/ha alone
  % visual injury Obs: 0%
[4]; PGR 140 g ai/ha alone
  % visual injury Obs: 0%
[5]; PGR 140 g ai/ha alone
  % visual injury Obs: 0%
[6]; PGR 140 g ai/ha alone
  % visual injury Obs: 0%
Kochia scoparia (kochia); PGR 140 g ai/ha alone
  % visual injury Obs: 0%
[7]; PGR 140 g ai/ha alone
  % visual injury Obs: 8%
[8]; PGR 140 g ai/ha alone
  % visual injury Obs: 0%
[9]; PGR 140 g ai/ha alone
  % visual injury Obs: 5%
